# Measured values: ChEMBL document CHEMBL4811216, “Chemotherapy for human schistosomiasis: how far have we come? What's new? Where do we go from here?” (RSC Med Chem, 2020)
# Columns and labels:
# [1] = system: Schistosoma mansoni; assay: Antischistosomal activity against Schistosoma mansoni cercariae assessed as worm death incubated for 2 hrs by microscopic method relative to control; type: functional
# [2] = system: Schistosoma mansoni; assay: Antischistosomal activity against Schistosoma mansoni miracidia assessed as worm death incubated for 1 to 2 hrs by microscopic method relative to control; type: functional; settings: time 1-2 hrs
# [3] = system: Schistosoma mansoni; assay: Schistosomicidal-activity against Schistosoma mansoni LE assessed as seperation of worm couples at 25 uM measured within 120 hrs relative to control; type: functional
# [4] = system: Schistosoma mansoni; assay: Schistosomicidal-activity against Schistosoma mansoni LE assessed as reduction in motor activity at 50 uM measured after 120 hrs relative to control; type: functional; parameters: scale not given: the % may be the effect or the level left
# [5] = system: Schistosoma mansoni; assay: Antischistosomal activity against adult Schistosoma mansoni BH assessed as worm death at 150 to 200 ug/ml incubated for 120 hrs measured every 24 hrs by light microscopy relative to control; type: functional; settings: dose 150-200 µg/ml, at 150 to 200 µg/mL
# [6] = system: Schistosoma mansoni; assay: Antischistosomal activity against adult Schistosoma mansoni BH assessed as reduction in motor activity at 150 to 200 ug/ml incubated for 120 hrs measured every 24 hrs by light microscopy relative to control; type: functional; parameters: scale not given: the % may be the effect or the level left; settings: dose 150-200 µg/ml, at 150 to 200 µg/mL
# [7] = system: Schistosoma mansoni; assay: Antischistosomal activity against adult Schistosoma mansoni BH infected in Balb/C mouse assessed as reduction in worm burden at 40 mg/kg, po administered at 45 days post infection and measured at 15 days post treatment relative to control; type: functional; parameters: scale not given: the % may be the effect or the level left; settings: time 15 day
# [8] = system: Schistosoma mansoni; assay: Antischistosomal activity against adult Schistosoma mansoni BH infected in Balb/C mouse assessed as reduction in number of eggs at 40 mg/kg, po administered at 45 days post infection and measured at 15 days post treatment relative to control; type: functional; parameters: scale not given: the % may be the effect or the level left; settings: time 15 day
# [9] = system: Schistosoma mansoni; assay: Antischistosomal activity against juvenile Schistosoma mansoni BH infected in Balb/C mouse assessed as reduction in worm burden at 40 mg/kg, po administered at 21 days post infection and measured at 15 days post treatment relative to control; type: functional; parameters: scale not given: the % may be the effect or the level left; settings: time 15 day
# [10] = system: Schistosoma mansoni; assay: Antischistosomal activity against Schistosoma mansoni Liberian NTS at 10 uM measured after 24 hrs relative to control; type: functional
# [11] = system: Schistosoma mansoni; assay: Antischistosomal activity against adult Schistosoma mansoni BH assessed as tegument damage at 150 to 200 ug/ml incubated for 120 hrs measured every 24 hrs by light microscopy relative to control; type: functional; settings: dose 150-200 µg/ml, at 150 to 200 µg/mL
# [12] = system: Schistosoma mansoni; assay: Antischistosomal activity against Schistosoma mansoni Liberian assessed as reduction in egg production incubated for 72 hrs measured every 24 hrs; type: functional, organism-based
# [13] = system: Schistosoma mansoni; assay: Antischistosomal activity against Schistosoma mansoni Liberian assessed as worm death at 20 uM incubated for 72 hrs measured every 24 hrs by microscopic method relative to control; type: functional
# [14] = system: Schistosoma mansoni; assay: Antischistosomal activity against Schistosoma mansoni Liberian assessed as reduction in worm motor activity incubated for 72 hrs measured every 24 hrs by microscopic method relative to control; type: functional, organism-based
# [15] = system: Schistosoma mansoni; assay: Antischistosomal activity against Schistosoma mansoni LE infected in BALB/c mouse assessed as reduction in egg burden at 50 mg/kg, ip administered for 5 consecutive days starting from day 23 post infection by microscopic method relative to control; type: functional; parameters: scale not given: the % may be the effect or the level left
# [16] = system: Schistosoma mansoni; assay: Antischistosomal activity against Schistosoma mansoni LE infected in BALB/c mouse assessed as reduction in worm burden at 10 mg/kg, ip administered for 5 consecutive days starting from day 1 post infection by microscopic method relative to control; type: functional; parameters: scale not given: the % may be the effect or the level left
# [17] = system: Schistosoma mansoni; assay: Antischistosomal activity against Schistosoma mansoni LE infected in BALB/c mouse assessed as reduction in egg burden at 100 mg/kg, ip administered for 5 consecutive days starting from day 1 post infection by microscopic method relative to control; type: functional; parameters: scale not given: the % may be the effect or the level left
# [18] = system: Schistosoma mansoni; assay: Antischistosomal activity against Schistosoma mansoni LE assessed as reduction in egg development by measuring developed eggs at 100 uM measured after 5 days relative to control; type: functional; parameters: scale not given: the % may be the effect or the level left; settings: time 5 day
# [19] = system: Schistosoma mansoni; assay: Antischistosomal activity against Schistosoma mansoni LE infected in BALB/c mouse assessed as reduction in egg burden at 50 mg/kg, ip administered for 5 consecutive days starting from day 1 post infection by microscopic method relative to control; type: functional; parameters: scale not given: the % may be the effect or the level left
# [20] = system: Schistosoma mansoni; assay: Antischistosomal activity against Schistosoma mansoni LE infected in BALB/c mouse assessed as reduction in worm burden at 100 mg/kg, ip administered for 5 consecutive days starting from day 23 post infection by microscopic method relative to control; type: functional; parameters: scale not given: the % may be the effect or the level left
# [21] = system: Schistosoma mansoni; assay: Antischistosomal activity against adult Schistosoma mansoni LE measured every 24 hrs for 72 hrs by inverted microscopy; type: functional
# [22] = system: Schistosoma mansoni; assay: Antischistosomal activity against Schistosoma mansoni LE infected in BALB/c mouse assessed as reduction in egg burden at 50 mg/kg, ip administered for 5 consecutive days starting from day 37 post infection by microscopic method relative to control; type: functional; parameters: scale not given: the % may be the effect or the level left
# [23] = system: Schistosoma mansoni; assay: Antischistosomal activity against Schistosoma mansoni LE infected in BALB/c mouse assessed as reduction in worm burden at 100 mg/kg, ip administered for 5 consecutive days starting from day 37 post infection by microscopic method relative to control; type: functional; parameters: scale not given: the % may be the effect or the level left
# [24] = system: Schistosoma mansoni; assay: Antischistosomal activity against Schistosoma mansoni LE infected in BALB/c mouse assessed as reduction in worm burden at 50 mg/kg, ip administered for 5 consecutive days starting from day 23 post infection by microscopic method relative to control; type: functional; parameters: scale not given: the % may be the effect or the level left
# [25] = system: Schistosoma mansoni; assay: Antischistosomal activity against Schistosoma mansoni LE infected in BALB/c mouse assessed as reduction in egg burden at 10 mg/kg, ip administered for 5 consecutive days starting from day 1 post infection by microscopic method relative to control; type: functional; parameters: scale not given: the % may be the effect or the level left
# [26] = system: Schistosoma mansoni; assay: Antischistosomal activity against Schistosoma mansoni LE infected in BALB/c mouse assessed as reduction in egg burden at 100 mg/kg, ip administered for 5 consecutive days starting from day 23 post infection by microscopic method relative to control; type: functional; parameters: scale not given: the % may be the effect or the level left
# [27] = system: Schistosoma mansoni; assay: Antischistosomal activity against Schistosoma mansoni LE assessed as reduction in egg population at 100 uM measured after 72 hrs by inverted microscopy relative to control; type: functional; parameters: scale not given: the % may be the effect or the level left
# [28] = system: Schistosoma mansoni; assay: Antischistosomal activity against Schistosoma mansoni LE infected in BALB/c mouse assessed as reduction in egg burden at 10 mg/kg, ip administered for 5 consecutive days starting from day 23 post infection by microscopic method relative to control; type: functional; parameters: scale not given: the % may be the effect or the level left
# [29] = system: Schistosoma mansoni; assay: Antischistosomal activity against Schistosoma mansoni LE infected in BALB/c mouse assessed as reduction in worm burden at 10 mg/kg, ip administered for 5 consecutive days starting from day 37 by microscopic method relative to control; type: functional; parameters: scale not given: the % may be the effect or the level left
# [30] = system: Schistosoma mansoni; assay: Antischistosomal activity against Schistosoma mansoni LE infected in BALB/c mouse assessed as reduction in worm burden at 50 mg/kg, ip administered for 5 consecutive days starting from day 37 post infection by microscopic method relative to control; type: functional; parameters: scale not given: the % may be the effect or the level left
# [31] = system: Schistosoma mansoni; assay: Antischistosomal activity against juvenile Schistosoma mansoni LE measured every 24 hrs for 72 hrs by inverted microscopy; type: functional
# [32] = system: Schistosoma mansoni; assay: Antischistosomal activity against Schistosoma mansoni LE schistosomula measured every 24 hrs for 72 hrs by inverted microscopy; type: functional
# [33] = system: Schistosoma mansoni; assay: Antischistosomal activity against Schistosoma mansoni LE infected in BALB/c mouse assessed as reduction in worm burden at 50 mg/kg, ip administered for 5 consecutive days starting from day 1 post infection by microscopic method relative to control; type: functional; parameters: scale not given: the % may be the effect or the level left
# [34] = system: Schistosoma mansoni; assay: Antischistosomal activity against Schistosoma mansoni LE infected in BALB/c mouse assessed as reduction in worm burden at 10 mg/kg, ip administered for 5 consecutive days starting from day 23 by microscopic method relative to control; type: functional; parameters: scale not given: the % may be the effect or the level left
# [35] = system: Schistosoma mansoni; assay: Antischistosomal activity against Schistosoma mansoni LE infected in BALB/c mouse assessed as reduction in worm burden at 100 mg/kg, ip administered for 5 consecutive days starting from day 1 post infection by microscopic method relative to control; type: functional; parameters: scale not given: the % may be the effect or the level left
# [36] = system: Schistosoma mansoni; assay: Antischistosomal activity against Schistosoma mansoni LE infected in BALB/c mouse assessed as reduction in egg burden at 100 mg/kg, ip administered for 5 consecutive days starting from day 37 post infection by microscopic method relative to control; type: functional; parameters: scale not given: the % may be the effect or the level left
# [37] = system: Schistosoma mansoni; assay: Antischistosomal activity against Schistosoma mansoni LE infected in BALB/c mouse assessed as reduction in egg burden at 10 mg/kg, ip administered for 5 consecutive days starting from day 37 post infection by microscopic method relative to control; type: functional; parameters: scale not given: the % may be the effect or the level left
# [38] = system: Schistosoma mansoni; assay: Antischistosomal activity against Schistosoma mansoni BH assessed as tegument damage at 3.125 to 25 ug/ml measured up to 120 hrs by inverted microscopic method relative to control; type: functional; settings: dose 3.125-25 µg/ml; time hrs <=120; at 3.125 to 25 µg/mL
# [39] = system: Schistosoma mansoni; assay: Antischistosomal activity against juvenile Schistosoma mansoni BH infected in Balb/C mouse assessed as reduction in worm burden at 100 mg/kg, po measured after 2 weeks; type: functional; parameters: scale not given: the % may be the effect or the level left
# [40] = system: Schistosoma mansoni; assay: Antischistosomal activity against Schistosoma mansoni BH infected in Balb/C mouse assessed as reduction in worm burden at 100 mg/kg, po measured after 2 weeks by Kato-Katz quantitative method; type: functional; settings: Schistosoma mansoni, BH, po, 336 h
# [41] = system: Schistosoma mansoni; assay: Antischistosomal activity against adult Schistosoma mansoni BH infected in Balb/C mouse assessed as reduction in worm burden at 100 mg/kg, po measured after 2 weeks; type: functional; parameters: scale not given: the % may be the effect or the level left
# [42] = system: Schistosoma mansoni; assay: Antischistosomal activity against Schistosoma mansoni BH assessed as changes in motor activity at 3.125 to 25 ug/ml measured up to 120 hrs by inverted microscopic method relative to control; type: functional; settings: dose 3.125-25 µg/ml; time hrs <=120; at 3.125 to 25 µg/mL
smiles,measurement,setting,value
CC1=CC(=O)CC(C)(C)C1(O)/C=C/C(C)O[C@@H]1O[C@H](COC(=O)c2cc(O)c(O)c(O)c2)[C@@H](O)[C@H](O)[C@H]1O (some centres not stated),mortality,[1],41%
same,mortality,[2],99.7%
COc1cc([C@@H]2OC(=O)[C@@H]3[C@H]2C(=O)O[C@H]3c2ccc(O)c(OC)c2)ccc1O,Activity,[3],25%
same,Activity,[4],25%
Cn1cnc(C[C@H]2CCC(=O)[C@@H]2[C@H](O)c2ccccc2)c1,mortality,[5],100%
same,Activity,[6],100%
same,Activity,[7],70%
same,Activity,[8],80%
same,Activity,[9],50.2%
same,Activity,[10],100%
same,Activity,[11],100%
C[C@@H](N)CCCCCC/C=C\CCCCCCCCN,EC50,[12],3.6 µM
same,mortality at 20 µM,[13],100%
same,EC50,[14],8.8 µM
O=C1OC[C@@H](Cc2cc3c(cc2[N+](=O)[O-])OCO3)[C@@H]1Cc1cc2c(cc1[N+](=O)[O-])OCO2,Activity,[15],52%
same,Activity,[16],33%
same,Activity,[17],16%
same,Activity,[18],<10%
same,Activity,[19],52%
same,Activity,[20],39%
same,LC50,[21],102 µM
same,Activity,[22],52%
same,Activity,[23],39%
same,Activity,[24],36%
same,Activity,[25],40%
same,Activity,[26],16%
same,Activity,[27],>83%
same,Activity,[28],40%
same,Activity,[29],33%
same,Activity,[30],36%
same,LC50,[31],180 µM
same,LC50,[32],20.4 µM
same,Activity,[33],36%
same,Activity,[34],33%
same,Activity,[35],39%
same,Activity,[36],16%
same,Activity,[37],40%
Cn1cncc1C[C@H]1CCC(=O)[C@H]1C(O)c1ccccc1 (some centres not stated),Activity,[38],100%
same,Activity,[39],58%
same,mortality at 100 mg/kg,[40],64.1%
same,Activity,[41],60.6%
same,Activity,[42],100%
